Measurements published in ChEMBL document CHEMBL5244273, “Tuberculosis: An Overview of the Immunogenic Response, Disease Progression, and Medicinal Chemistry Efforts in the Last Decade toward the Development of Potential Drugs for Extensively Drug-Resistant Tuberculosis Strains” (J Med Chem, 2021).
pEC50, pIC50: −log10 of the molar value. Values after ≈ are worked out from the molar mass of the structure shown.

Experiments:
[1] = test system: Mycobacterium tuberculosis; assay: Antitubercular activity against Mycobacterium tuberculosis H37Rv assessed as inhibition of bacterial growth by alamar blue assay; assay type: functional
[2] = test system: Mycobacterium tuberculosis; assay: Antimycobacterial activity against Mycobacterium tuberculosis H37Rv incubated for 3 weeks; assay type: functional; details: 504 h
[3] = test system: Mycobacterium tuberculosis; assay: Antimycobacterial activity against Mycobacterium tuberculosis H37Rv incubated for 4 weeks; assay type: functional; details: 672 h
[4] = test system: Mycobacterium tuberculosis; assay: Antimycobacterial activity against Mycobacterium tuberculosis H37Rv incubated for 2 weeks; assay type: functional; details: 336 h
[5] = test system: Mycobacterium tuberculosis; assay: Antimycobacterial activity against Mycobacterium tuberculosis H37Rv incubated for 5 weeks; assay type: functional; details: 840 h
[6] = test system: Mycobacterium tuberculosis; assay: Potentiation of ethionamide induced antibacterial activity against Mycobacterium tuberculosis H37Rv expressing GFP incubated for 5 days by fluorescence based analysis; assay type: functional, organism-based; details: 120 h
[7] = test system: Mycobacterium tuberculosis; assay: Antimycobacterial activity against Mycobacterium tuberculosis H37Rv infected in human THP-1 cells assessed as inhibition of bacterial growth; assay type: functional, organism-based
[8] = test system: Mycobacterium tuberculosis; assay: Antimycobacterial activity against Mycobacterium tuberculosis H37Rv assessed as inhibition of bacterial growth incubated for 5 days by alamar blue assay; assay type: functional; details: 120 h, time 5 day

SMILES: O=C(NNC(=O)c1ccc([N+](=O)[O-])cc1)c1ccncc1
- MIC [1]: 25 µg/mL (≈ 87.3 µM)

SMILES: Cc1ccccc1C(=O)NNC(=O)c1ccncc1
- MIC [1]: 25 µg/mL (≈ 97.9 µM)

SMILES: O=C(NNS(=O)(=O)c1ccccc1)c1ccncc1
- MIC [1]: 50 µg/mL (≈ 180 µM)

SMILES: Cc1ccc(S(=O)(=O)NNC(=O)c2ccncc2)cc1
- MIC [1]: 25 µg/mL (≈ 85.8 µM)

SMILES: O=C(Cc1ccccc1F)NNC(=O)c1ccncc1
- MIC [1]: 6.25 µg/mL (≈ 22.9 µM)

SMILES: O=C(NNC(=O)c1ccc(Cl)c(Cl)c1)c1ccncc1
- MIC [1]: 12.5 µg/mL (≈ 40.3 µM)

SMILES: O=C(NNC(=O)c1ccc(Cl)cc1)c1ccncc1
- MIC [1]: 25 µg/mL (≈ 90.7 µM)

SMILES: O=C(NNC(=O)c1ccncc1)c1ccncc1
- MIC [1]: 12.5 µg/mL (≈ 51.6 µM)

SMILES: CCCCCCCCCCCCCCCCCC(=O)NNC(=O)c1ccncc1
- MIC [1]: 50 µg/mL (≈ 124 µM)

SMILES: COc1ccc(/C=C/C(=O)NNC(=O)c2ccncc2)cc1
- MIC [1]: 12.5 µg/mL (≈ 42 µM)

SMILES: O=C(/C=C/c1ccccc1)NNC(=O)c1ccncc1
- MIC [1]: 50 µg/mL (≈ 187 µM)

SMILES: CC(C)(C)n1cc(C(=O)O)c(=O)c2cc(F)c(-c3ccc(F)cc3F)cc21
- MIC [2]: 8 µg/mL (≈ 21.3 µM)
- MIC [3]: 8 µg/mL (≈ 21.3 µM)
- MIC [4]: 4 µg/mL (≈ 10.7 µM)
- MIC [5]: 8 µg/mL (≈ 21.3 µM)

SMILES: CC(C)(C)n1cc(C(=O)O)c(=O)c2cc(F)c(Sc3ccccc3)cc21
- MIC [2]: 16 µg/mL (≈ 43.1 µM)
- MIC [3]: 16 µg/mL (≈ 43.1 µM)
- MIC [4]: 8 µg/mL (≈ 21.5 µM)
- MIC [5]: 16 µg/mL (≈ 43.1 µM)

SMILES: COc1ccc(-c2cc3c(cc2F)c(=O)c(C(=O)O)cn3C(C)(C)C)cc1
- MIC [2]: 1 µg/mL (≈ 2.71 µM)
- MIC [3]: 1 µg/mL (≈ 2.71 µM)
- MIC [4]: 0.5 µg/mL (≈ 1.35 µM)
- MIC [5]: 2 µg/mL (≈ 5.41 µM)

SMILES: CC(C)(C)n1cc(C(=O)O)c(=O)c2cc(F)c(-c3cccnc3)cc21
- MIC [2]: 0.25 µg/mL (≈ 0.735 µM)
- MIC [3]: 0.25 µg/mL (≈ 0.735 µM)
- MIC [4]: 0.25 µg/mL (≈ 0.735 µM)
- MIC [5]: 0.25 µg/mL (≈ 0.735 µM)

SMILES: CC(C)(C)n1cc(C(=O)O)c(=O)c2cc(F)c(C#Cc3ccccc3)cc21
- MIC [2]: > 16 µg/mL
- MIC [3]: > 16 µg/mL
- MIC [4]: > 16 µg/mL
- MIC [5]: > 16 µg/mL

SMILES: CC(C)(C)n1cc(C(=O)O)c(=O)c2cc(F)c(-c3ccc(O)cc3)cc21
- MIC [2]: 0.25 µg/mL (≈ 0.704 µM)
- MIC [3]: 0.25 µg/mL (≈ 0.704 µM)
- MIC [4]: 0.25 µg/mL (≈ 0.704 µM)
- MIC [5]: 0.25 µg/mL (≈ 0.704 µM)

SMILES: O=C(CCC(F)(F)F)N1CCC(F)(c2ccnc(Cl)c2)CC1
- pEC50 [6]: > 6.82
- pIC50 [7]: 8.00

SMILES: COc1ccc(NC(=O)c2c(Nc3cccc(C)c3C)nn3c(O)cc(C)nc23)cc1
- MIC [8]: 50 µg/mL (≈ 120 µM)

SMILES: CCOc1ccc(NC(=O)c2c(Nc3ccccc3)nn3c(O)cc(C)nc23)cc1
- MIC [8]: 50 µg/mL (≈ 124 µM)

SMILES: Cc1cc(O)n2nc(Nc3ccc(F)cc3)c(C(=O)Nc3cccc(Cl)c3)c2n1
- MIC [8]: 12.5 µg/mL (≈ 30.4 µM)

SMILES: Cc1ccc(NC(=O)c2c(Nc3ccccc3)nn3c(O)cc(C)nc23)cc1
- MIC [8]: 50 µg/mL (≈ 134 µM)

SMILES: Cc1cc(O)n2nc(Nc3cccc(C)c3C)c(C(=O)Nc3cccc(Cl)c3)c2n1
- MIC [8]: 50 µg/mL (≈ 119 µM)

SMILES: Cc1ccc(Nc2nn3c(O)cc(C)nc3c2C(=O)Nc2ccc(F)cc2)c(C)c1
- MIC [8]: 50 µg/mL (≈ 123 µM)

SMILES: O=C(CCC(F)(F)F)N1CC(C2CCCCC2)C1
- pEC50 [6]: > 8.00
- pIC50 [7]: 8.00

SMILES: CC(C)(C)n1cc(C(=O)O)c(=O)c2cc(F)c(-c3ccc(Cl)cc3)cc21
- MIC [2]: 1 µg/mL (≈ 2.68 µM)
- MIC [3]: 1 µg/mL (≈ 2.68 µM)
- MIC [4]: 1 µg/mL (≈ 2.68 µM)
- MIC [5]: 1 µg/mL (≈ 2.68 µM)

SMILES: O=C(CCC(F)(F)F)N1CCC(F)(c2ccnc(F)c2)CC1
- pEC50 [6]: > 6.82
- pIC50 [7]: 8.00

SMILES: CCN1CCN(c2nn3c(O)cc(C)nc3c2C(=O)Nc2cccc(Cl)c2Cl)CC1
- MIC [8]: 50 µg/mL (≈ 111 µM)

SMILES: O=C(NNC(=O)c1cc(O)ccc1O)c1ccncc1
- MIC [1]: 50 µg/mL (≈ 183 µM)

SMILES: O=C(CCC(F)(F)F)N1CCC(F)(c2cncc(Cl)c2)CC1
- pEC50 [6]: > 6.82
- pIC50 [7]: 8.00

SMILES: COc1ccc(-c2cc3c(cc2F)c(=O)c(C(=O)O)cn3C(C)(C)C)cn1
- MIC [2]: 0.25 µg/mL (≈ 0.675 µM)
- MIC [3]: 0.5 µg/mL (≈ 1.35 µM)
- MIC [4]: 0.25 µg/mL (≈ 0.675 µM)
- MIC [5]: 0.5 µg/mL (≈ 1.35 µM)

SMILES: C=CC(=O)NNC(=O)c1ccncc1
- MIC [1]: 50 µg/mL (≈ 262 µM)

SMILES: O=C(CCC(F)(F)F)N1CC(c2cccc(Cl)c2)C1
- pEC50 [6]: > 8.00
- pIC50 [7]: 8.00

SMILES: O=C(CCC(F)(F)F)N1CCC(F)(c2cncc(C(F)(F)F)c2)CC1
- pEC50 [6]: > 6.82
- pIC50 [7]: 8.00

SMILES: CC(C)(C)CCn1cc(C(=O)O)c(=O)c2cc(F)c(-c3ccccc3)cc21
- MIC [2]: 8 µg/mL (≈ 21.8 µM)
- MIC [3]: 8 µg/mL (≈ 21.8 µM)
- MIC [4]: 4 µg/mL (≈ 10.9 µM)
- MIC [5]: 8 µg/mL (≈ 21.8 µM)

SMILES: Cc1cccc(C(=O)NNC(=O)c2ccncc2)c1
- MIC [1]: 12.5 µg/mL (≈ 49 µM)

SMILES: O=C(NNC(=O)c1ccco1)c1ccncc1
- MIC [1]: 12.5 µg/mL (≈ 54.1 µM)

SMILES: O=C(/C=C/c1ccc(Cl)cc1)NNC(=O)c1ccncc1
- MIC [1]: 12.5 µg/mL (≈ 41.4 µM)

SMILES: O=C(CCC(F)(F)F)N1CCC(F)(c2cc(C(F)(F)F)ccn2)CC1
- pEC50 [6]: > 6.82
- pIC50 [7]: 8.00

SMILES: COc1ccc(C(=O)NNC(=O)c2ccncc2)cc1OC
- MIC [1]: 50 µg/mL (≈ 166 µM)

SMILES: CC(C)(C)n1cc(C(=O)O)c(=O)c2cc(F)c(-c3ccccc3)cc21
- MIC [2]: 2 µg/mL (≈ 5.89 µM)
- MIC [3]: 2 µg/mL (≈ 5.89 µM)
- MIC [4]: 1 µg/mL (≈ 2.95 µM)
- MIC [5]: 2 µg/mL (≈ 5.89 µM)

SMILES: O=C(CCC(F)(F)F)N1CCC(c2ccnc(Cl)c2)CC1
- pEC50 [6]: > 6.82
- pIC50 [7]: 8.00

SMILES: CC(Br)C(=O)NNC(=O)c1ccncc1 (stereo unspecified)
- MIC [1]: 50 µg/mL (≈ 184 µM)
